Reference: patent US4402978A, “Gastro-protecting activity of substituted derivatives of 4-phenyl-4-oxo-2-hydroxy-butanoic acid” (Roussel-Uclaf, priority 1980, dated 1983)

Columns and labels:
[1] = system: ulcers in rats in the stomach region; experiment: Determination of anti-ulcer activity (Shay method, ulcers induced in rats by pyloric ligation); format: in vivo; settings: via the mouth, 16 hours after treatment
Text: (1) Determination of anti-ulcer activity
The method used is described by Shay et al. in Gastroenterology, 5, 43, (1945).
The Shay method consists of inducing ulcers in rats in the stomach region by pyloric ligation.
The animals are anesthetized with ether. A longitudinal incision is made, 1 cm below the sternum; the glandular part of the stomach and the duodenum are exposed, and a ligature is placed several mm below the pylorus. The muscular sheet is left as it is and the skin is sutured with 2 clips.
The animals immediately receive the dispersive or the substance to be studied, via the mouth, in a volume of 0.5 ml/100 g and are kept without food or drink until sacrificed, 16 hours after the treatment, by carotid bleeding.
Before removal of the stomach, a ligature is placed above the cardia.
The gastric liquid is collected for measurement of pH.
The stomach is then opened along the major curvature, rinsed with physiological serum, and spread out on millimeter graph paper to be examined under a binocular magnifier.
The severity of the lesions, graded 0 to 4, is macroscopically evaluated for each stomach.
For each group of rats, the mean intensity of the ulcerations is determined, and the protection is calculated as the ratio of the mean index for the treated group to the mean index for the control group.
The pH values of the gastric liquid are likewise determined for the treated and control animals.

[2] = Determination of Acute Toxicity (oral LD50 in mice); settings: mouse, in vivo
Experimental: (2) Determination of Acute Toxicity
The lethal dose LD50 of the derivatives of certain examples were evaluated after administration by the oral route in mice.

Compound	Ulcerations, % of protection with respect to controls ([1]; 0.8 mg/kg)	pH of gastric liquid, treated animals ([1]; 0.8 mg/kg)	Ulcerations, % of protection with respect to controls ([1]; 4 mg/kg)	pH of gastric liquid, treated animals ([1]; 4 mg/kg)	Ulcerations, % of protection with respect to controls ([1]; 20 mg/kg)	pH of gastric liquid, treated animals ([1]; 20 mg/kg)	LD50 [2]	Ulcerations, % of protection with respect to controls ([1]; 100 mg/kg)	pH of gastric liquid, treated animals ([1]; 100 mg/kg)	Ulcerations, % of protection with respect to controls ([1]; 1 mg/kg)	pH of gastric liquid, treated animals ([1]; 1 mg/kg)
COc1ccc(C(=O)CC(O)C(=O)O)cc1OC (stereo not shown) [Example 1, 4-(3,4-dimethoxyphenyl)-4-oxo-2-hydroxy-butanoic acid]	27%	3.4	72%	3.0	72%	2.3	> 1000 mg/kg	–	–	–	–
O=C(CC(O)C(=O)O)c1ccc([N+](=O)[O-])cc1 (stereo not shown) [Example 8, 4-(4-nitrophenyl)-4-oxo-2-hydroxy-butanoic acid]	–	–	–	–	–	–	> 1000 mg/kg	49%	3.0	–	–
O=C(CC(O)C(=O)O)c1ccc(Cl)cc1Cl (stereo not shown) [Example 4, 4-(2,4-dichlorophenyl)-4-oxo-2-hydroxy-butanoic acid]	–	–	–	–	9%	2.9	> 1000 mg/kg	91%	4.4	–	–
O=C(CC(O)C(=O)O)c1ccc(Cl)cc1 (stereo not shown) [Example 2, 4-(4-chlorophenyl)-4-oxo-2-hydroxy-butanoic acid]	–	–	25%	3.5	72%	3.0	> 1000 mg/kg	–	–	–	–
O=C(CC(O)C(=O)O)c1ccc(Cl)c(Cl)c1 (stereo not shown) [Example 3, 4-(3,4-dichlorophenyl)-4-oxo-2-hydroxy-butanoic acid]	–	–	–	–	36%	3.2	> 1000 mg/kg	91%	4.2	–	–
O=C(CC(O)C(=O)O)c1ccc(Br)cc1 (stereo not shown) [Example 5, 4-(4-bromophenyl)-4-oxo-2-hydroxy-butanoic acid]	–	–	–	–	40%	3.1	> 1000 mg/kg	95%	3.4	–	–
COc1cc(OC)cc(C(=O)CC(O)C(=O)O)c1 (stereo not shown) [Example 11, 4-(3,5-dimethoxyphenyl)-4-oxo-2-hydroxy-butanoic acid]	–	–	50%	2.0	60%	2.0	> 1000 mg/kg	88%	3.0	53%	1.9
O=C(CC(O)C(=O)O)c1ccccc1[N+](=O)[O-] (stereo not shown) [Example 13, 4-(2-nitrophenyl)-4-oxo-2-hydroxy-butanoic acid]	–	–	–	–	–	–	> 1000 mg/kg	–	–	–	–
